Measurements reported in paper PMC6131557, “Selective Cytotoxicity of Dihydroorotate Dehydrogenase Inhibitors to Human Cancer Cells Under Hypoxia and Nutrient-Deprived Conditions” (Frontiers in Pharmacology, 2018).
Read-outs that look alike come from different tables or passages of the source.

Assays:
[1] = biological target: T1, human dihydroorotate dehydrogenase (HsDHODH) (Homo sapiens, UniProt Q02127); assay: Inhibition of recombinant human DHODH enzyme activity; assay type: biochemical; conditions: recombinant human DHODH; purified enzyme fixed at 10 nM; read-out: IC50 (nM), inhibition of human DHODH
T1 construct: made in house
T1 sequence (Q02127 whole entry): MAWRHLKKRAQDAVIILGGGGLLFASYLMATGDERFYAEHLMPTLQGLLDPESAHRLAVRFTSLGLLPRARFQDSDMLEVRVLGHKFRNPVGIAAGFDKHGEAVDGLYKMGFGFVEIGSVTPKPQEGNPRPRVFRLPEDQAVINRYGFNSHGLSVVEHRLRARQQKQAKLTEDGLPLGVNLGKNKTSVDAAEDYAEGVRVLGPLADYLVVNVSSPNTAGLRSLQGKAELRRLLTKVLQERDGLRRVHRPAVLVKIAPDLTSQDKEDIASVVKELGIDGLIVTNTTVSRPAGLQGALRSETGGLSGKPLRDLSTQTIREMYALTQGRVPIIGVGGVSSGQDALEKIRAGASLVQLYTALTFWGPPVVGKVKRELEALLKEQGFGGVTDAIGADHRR

DLD-1 cells = assay: Cytotoxicity assay (Cell Counting Kit-8 / WST-8) on DLD-1 cells; assay type: cell-based, human; conditions: Homo sapiens
Method: (§1) For hypoxia and nutrient-deprived culture conditions, cells were incubated under 1% oxygen in glucose and glutamine-free DMEM (Gibco) without FBS.
(§2) DLD-1 or HDF cells were seeded at 2.5 × 10^4 cells/well on a 96-well plate with normal medium, and cultured overnight under normal culture condition. The cells were washed with PBS and the medium was replaced to either normal medium or glucose and glutamine-free DMEM without FBS. Test compounds or DMSO as a control were added to the wells. The cells in normal medium were cultured under normal culture conditions, while cells in nutrient-deprived medium were cultured under hypoxia condition. After 24 or 48 h incubation, the cells were washed with PBS, 100 μl of fresh normal medium, and 10 μl of Cell Counting Kit-8 solution (Donjindo, Japan) was added to each well. After 3 h incubation under normal culture condition, the absorbance was measured at 450 nm using SpectraMax M2e-TUY microplate reader (Molecular Devices). Cell viability of test wells was calculated based on absorbance of control wells containing DMSO according to manufacturer’s protocol.

HDF cells = assay: Cytotoxicity assay (Cell Counting Kit-8 / WST-8) on HDF cells; assay type: cell-based; conditions: Homo sapiens
Method: as §1, §2

Complexes I–III = assay: NADH-cytochrome c reductase (complexes I–III) activity, bovine mitochondria; assay type: biochemical
Method: (§3) Recombinant human DHODH was purified, crystallized, and assayed as previously described ([Inaoka et al., 2016]) without modification. Bovine mitochondrial fractions were prepared as previously described ([Kita et al., 1988]) and NADH dehydrogenase (complex I), succinate:quinone reductase (complex II), quinol oxidase (complexes III–IV), NADH-cytochrome c reductase (complexes I–III), and succinate-cytochrome c (complexes II–III) activities were assayed following an established method ([Takamiya et al., 1986]; [Miyadera et al., 2001]; [Matsumoto et al., 2008]; [Kido et al., 2010]; [Nihashi et al., 2017]).

Complex II–III = assay: Succinate-cytochrome c reductase (complexes II–III) activity, bovine mitochondria; assay type: biochemical
Method: as §3

Complex I = assay: NADH dehydrogenase (complex I) activity, bovine mitochondria; assay type: biochemical; conditions: at 5 μM
Method: as §3

Complex II = biological target: T2, Complex II (Bos taurus, UniProt P35720+Q3T189+Q95123); assay: Succinate:quinone reductase (complex II) activity, bovine mitochondria; assay type: biochemical
T2 construct: from tissue; host or cells: bovine mitochondrial fraction / sub-mitochondrial particles
T2 sequence (P31039 45-665 partner limits assumed): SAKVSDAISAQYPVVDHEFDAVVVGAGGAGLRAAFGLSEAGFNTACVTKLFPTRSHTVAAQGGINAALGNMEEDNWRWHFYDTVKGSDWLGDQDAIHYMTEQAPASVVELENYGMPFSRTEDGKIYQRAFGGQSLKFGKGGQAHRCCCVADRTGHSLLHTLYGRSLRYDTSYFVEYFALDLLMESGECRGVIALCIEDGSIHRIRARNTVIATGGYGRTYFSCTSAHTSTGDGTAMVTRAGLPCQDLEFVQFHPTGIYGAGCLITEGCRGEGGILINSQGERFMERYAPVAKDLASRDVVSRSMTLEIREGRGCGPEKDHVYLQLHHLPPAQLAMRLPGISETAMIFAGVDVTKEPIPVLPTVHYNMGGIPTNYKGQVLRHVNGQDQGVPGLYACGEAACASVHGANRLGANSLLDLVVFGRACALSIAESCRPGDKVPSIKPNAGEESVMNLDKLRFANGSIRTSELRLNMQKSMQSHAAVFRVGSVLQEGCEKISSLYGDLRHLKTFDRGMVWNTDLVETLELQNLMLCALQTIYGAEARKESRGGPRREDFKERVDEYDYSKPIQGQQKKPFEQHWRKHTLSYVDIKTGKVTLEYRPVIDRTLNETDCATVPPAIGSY
T2 sequence (Q3T189 29-280): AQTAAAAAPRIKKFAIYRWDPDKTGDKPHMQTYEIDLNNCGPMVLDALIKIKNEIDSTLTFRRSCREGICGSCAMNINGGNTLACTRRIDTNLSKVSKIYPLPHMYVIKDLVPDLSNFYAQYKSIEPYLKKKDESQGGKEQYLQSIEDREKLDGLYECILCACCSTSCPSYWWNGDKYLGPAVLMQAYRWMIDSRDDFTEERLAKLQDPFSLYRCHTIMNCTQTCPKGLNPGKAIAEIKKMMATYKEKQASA
T2 sequence (P35720 30-169): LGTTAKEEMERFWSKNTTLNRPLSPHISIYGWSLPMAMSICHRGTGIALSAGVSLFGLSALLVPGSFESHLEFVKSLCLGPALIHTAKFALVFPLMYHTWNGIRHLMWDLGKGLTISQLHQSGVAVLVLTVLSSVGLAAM
T2 sequence (Q95123 56-158): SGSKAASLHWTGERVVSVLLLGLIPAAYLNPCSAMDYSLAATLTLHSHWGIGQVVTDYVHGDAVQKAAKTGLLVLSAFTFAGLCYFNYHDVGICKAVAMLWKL

Complex III = biological target: T3, Complex III (Bos taurus, UniProt P00157); assay: Quinol oxidase (complex III) activity, bovine mitochondria; assay type: biochemical; conditions: ubiquinol oxidase activity
T3 construct: from tissue; host or cells: bovine mitochondrial fraction / sub-mitochondrial particles

HBC-4 = assay: 39-cancer cell panel assay: HBC-4; assay type: cell-based; conditions: Homo sapiens, HBC4, Br
BSY-1 = assay: 39-cancer cell panel assay: BSY-1; assay type: cell-based; conditions: Homo sapiens, Br
MDA-MB-231 = assay: 39-cancer cell panel assay: MDA-MB-231; assay type: cell-based; conditions: Homo sapiens, Br
U251 = assay: 39-cancer cell panel assay: U251; assay type: cell-based; conditions: Homo sapiens, U-251, CNS
SF-268 = assay: 39-cancer cell panel assay: SF-268; assay type: cell-based; conditions: Homo sapiens, CNS
SF-295 = assay: 39-cancer cell panel assay: SF-295; assay type: cell-based; conditions: Homo sapiens, CNS
SF-539 = assay: 39-cancer cell panel assay: SF-539; assay type: cell-based; conditions: Homo sapiens, CNS
SNB-78 = assay: 39-cancer cell panel assay: SNB-78; assay type: cell-based; conditions: Homo sapiens, CNS
HCC2998 = assay: 39-cancer cell panel assay: HCC2998; assay type: cell-based; conditions: Homo sapiens, HCC 2998, Co
KM-12 = assay: 39-cancer cell panel assay: KM-12; assay type: cell-based, human; conditions: Co
HT-29 = assay: 39-cancer cell panel assay: HT-29; assay type: cell-based; conditions: Homo sapiens, Co
HCT-15 = assay: 39-cancer cell panel assay: HCT-15; assay type: cell-based; conditions: Homo sapiens, Co
HCT-116 = assay: 39-cancer cell panel assay: HCT-116; assay type: cell-based; conditions: Homo sapiens, Co
NCI-H23 = assay: 39-cancer cell panel assay: NCI-H23; assay type: cell-based; conditions: Homo sapiens, Lu
NCI-H226 = assay: 39-cancer cell panel assay: NCI-H226; assay type: cell-based; conditions: Homo sapiens, Lu
NCI-H522 = assay: 39-cancer cell panel assay: NCI-H522; assay type: cell-based; conditions: Homo sapiens, Lu
NCI-H460 = assay: 39-cancer cell panel assay: NCI-H460; assay type: cell-based; conditions: Homo sapiens, Lu
A549 = assay: 39-cancer cell panel assay: A549; assay type: cell-based; conditions: Homo sapiens, Lu
DMS273 = assay: 39-cancer cell panel assay: DMS273; assay type: cell-based; conditions: Homo sapiens, DMS-273, Lu
DMS114 = assay: 39-cancer cell panel assay: DMS114; assay type: cell-based; conditions: Homo sapiens, DMS-114, Lu
OVCAR-3 = assay: 39-cancer cell panel assay: OVCAR-3; assay type: cell-based; conditions: Homo sapiens, Ov
OVCAR-4 = assay: 39-cancer cell panel assay: OVCAR-4; assay type: cell-based; conditions: Homo sapiens, Ov
OVCAR-5 = assay: 39-cancer cell panel assay: OVCAR-5; assay type: cell-based; conditions: Homo sapiens, Ov
OVCAR-8 = assay: 39-cancer cell panel assay: OVCAR-8; assay type: cell-based; conditions: Homo sapiens, Ov
ACHN = assay: 39-cancer cell panel assay: ACHN; assay type: cell-based; conditions: Homo sapiens, Re
MKN1 = assay: 39-cancer cell panel assay: MKN1; assay type: cell-based; conditions: Homo sapiens, MKN-1, St
MKN7 = assay: 39-cancer cell panel assay: MKN7; assay type: cell-based; conditions: Homo sapiens, MKN-7, St
MKN45 = assay: 39-cancer cell panel assay: MKN45; assay type: cell-based; conditions: Homo sapiens, MKN-45, St
DU-145 = assay: 39-cancer cell panel assay: DU-145; assay type: cell-based; conditions: Homo sapiens, Pro

In the case of `C/C(=C\Cc1c(O)c(Cl)c(C)c(C=O)c1O)CC/C=C(\C)[C@@H]1CC(=O)C(C)(C)O1` [Compound 1, ascofuranone], the IC50 [1] is reported as 37.5 ± 12 nM, the IC50 (DLD-1 cells; read-out: IC50 (μM) DLD-1 (24 h) Hypoxia nutrient (-), DLD-1, 24 h, hypoxia (1% oxygen), nutrient (-)) is reported as 1.2 ± 0.79 µM and the IC50 (DLD-1 cells; read-out: IC50 (μM) DLD-1 (24 h) Normoxia nutrient (+), DLD-1, 24 h, normoxia, nutrient (+)) is reported as > 100 µM. The IC50 (DLD-1 cells; DLD-1, 48 h, hypoxia (1% oxygen), nutrient (-), read-out: IC50 (μM) DLD-1 (48 h) Hypoxia nutrient (-)) was 0.24 ± 0.057 µM, the IC50 (DLD-1 cells; DLD-1, 48 h, normoxia, nutrient (+), read-out: IC50 (μM) DLD-1 (48 h) Normoxia nutrient (+)) was > 100 µM and the IC50 (HDF cells; read-out: IC50 (μM) HDF (24 h) Hypoxia nutrient (-), hypoxia (1% oxygen), nutrient (-)) was 1.5 ± 0.18 µM. For the same molecule, the IC50 (HDF cells; read-out: IC50 (μM) HDF (24 h) Normoxia nutrient (+), normoxia, nutrient (+)) was > 100 µM, the IC50 (Complexes I–III) was 1.5 ± 0.04 µM and the IC50 (Complex II–III) was 13 ± 1.7 µM. For the same molecule, the “Inhibition (%) Complex I” value (Complex I) was 11 ± 5.8%, the inhibition at 5 µM (Complex II) was 1.5 ± 7.6% and the inhibition at 5 µM (Complex III) was 36 ± 1.2%. The GI50 (HBC-4) was 9.1 µM, the GI50 (BSY-1) was 16 µM and the GI50 (MDA-MB-231) was 7.4 µM. For the same molecule, the GI50 (U251) was 1.5 µM, the GI50 (SF-268) was 7 µM and the GI50 (SF-295) was 5.3 µM. For the same molecule, the GI50 (SF-539) was 1.7 µM, the GI50 (SNB-78) was 23 µM and the GI50 (HCC2998) was 17 µM. The “GI50 (μM) KM-12” value (KM-12) was 9.3 µM, the GI50 (HT-29) was 6.6 µM and the GI50 (HCT-15) was 1.3 µM. It also gave a GI50 (HCT-116) of 5.1 µM, a GI50 (NCI-H23) of 15 µM and a GI50 (NCI-H226) of 15 µM. It also gave a GI50 (NCI-H522) of 8.4 µM, a GI50 (NCI-H460) of 2 µM and a GI50 (A549) of 7.6 µM. The GI50 (DMS273) was 5.9 µM, the GI50 (DMS114) was 19 µM and the GI50 (OVCAR-3) was 8 µM. The GI50 (OVCAR-4) was 5.9 µM, the GI50 (OVCAR-5) was 7.6 µM and the GI50 (OVCAR-8) was 9.5 µM. It also gave a GI50 (ACHN) of 10 µM, a GI50 (MKN1) of 14 µM and a GI50 (MKN7) of 15 µM. The GI50 (MKN45) was 10 µM and the GI50 (DU-145) was 11 µM.
